ChEMBL document CHEMBL5649166, “RIP3 induces apoptosis independent of pronecrotic kinase activity” (Mol Cell, 2014)

Tests used:
[1] = molecular target: T1, Activin receptor type-1B (Homo sapiens) (UniProt P36896); assay: Residual activity of human ALK4/ACVR1B using casein as substrate at 1 uM in presence of 32P-ATP by Hotspot assay relative to control
T1 sequence (whole entry): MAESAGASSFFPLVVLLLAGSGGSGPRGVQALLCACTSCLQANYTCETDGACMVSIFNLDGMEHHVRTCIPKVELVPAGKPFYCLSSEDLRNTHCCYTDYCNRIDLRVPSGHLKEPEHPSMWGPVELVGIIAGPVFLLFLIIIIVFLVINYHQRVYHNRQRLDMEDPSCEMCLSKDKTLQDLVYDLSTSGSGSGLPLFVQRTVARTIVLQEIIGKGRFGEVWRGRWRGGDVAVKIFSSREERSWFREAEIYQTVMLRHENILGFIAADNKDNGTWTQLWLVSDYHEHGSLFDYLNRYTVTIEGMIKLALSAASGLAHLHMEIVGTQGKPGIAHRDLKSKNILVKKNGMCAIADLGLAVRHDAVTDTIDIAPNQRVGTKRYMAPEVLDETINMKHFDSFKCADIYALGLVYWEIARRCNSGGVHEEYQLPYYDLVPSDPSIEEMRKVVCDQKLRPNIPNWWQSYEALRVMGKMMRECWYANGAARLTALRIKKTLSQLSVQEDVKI

[2] = molecular target: T2, cGMP-dependent protein kinase 1 (Homo sapiens) (UniProt Q13976); assay: Inhibition of human PKG1a using LRRASLG as substrate at 1 uM in presence of 32P-ATP by Hotspot assay relative to control; values are per cent of control
T2 sequence (whole entry): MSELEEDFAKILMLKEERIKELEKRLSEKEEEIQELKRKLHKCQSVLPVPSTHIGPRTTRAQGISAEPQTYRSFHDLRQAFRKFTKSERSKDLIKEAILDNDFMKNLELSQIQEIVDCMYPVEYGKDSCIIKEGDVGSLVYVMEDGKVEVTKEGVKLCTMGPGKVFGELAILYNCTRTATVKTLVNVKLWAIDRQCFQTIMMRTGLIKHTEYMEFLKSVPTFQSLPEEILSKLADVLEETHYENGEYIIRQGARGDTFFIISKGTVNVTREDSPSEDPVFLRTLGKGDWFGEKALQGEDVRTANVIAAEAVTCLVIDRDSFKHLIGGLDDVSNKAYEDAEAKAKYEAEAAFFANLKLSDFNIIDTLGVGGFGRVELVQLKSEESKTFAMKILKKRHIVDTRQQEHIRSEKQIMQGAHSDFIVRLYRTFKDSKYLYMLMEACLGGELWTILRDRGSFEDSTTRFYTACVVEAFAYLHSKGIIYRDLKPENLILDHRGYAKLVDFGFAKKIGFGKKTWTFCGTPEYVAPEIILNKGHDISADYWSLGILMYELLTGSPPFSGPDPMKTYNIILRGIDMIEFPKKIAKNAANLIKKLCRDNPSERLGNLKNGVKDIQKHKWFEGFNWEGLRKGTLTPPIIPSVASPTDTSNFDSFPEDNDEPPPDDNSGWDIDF

[3] = molecular target: T3, Tyrosine-protein kinase Mer (Homo sapiens) (UniProt Q12866); assay: Inhibition of human c-MER using poly[Glu:Tyr] (4:1) as substrate at 1 uM in presence of 32P-ATP by Hotspot assay relative to control; values are per cent of control
T3 sequence (whole entry): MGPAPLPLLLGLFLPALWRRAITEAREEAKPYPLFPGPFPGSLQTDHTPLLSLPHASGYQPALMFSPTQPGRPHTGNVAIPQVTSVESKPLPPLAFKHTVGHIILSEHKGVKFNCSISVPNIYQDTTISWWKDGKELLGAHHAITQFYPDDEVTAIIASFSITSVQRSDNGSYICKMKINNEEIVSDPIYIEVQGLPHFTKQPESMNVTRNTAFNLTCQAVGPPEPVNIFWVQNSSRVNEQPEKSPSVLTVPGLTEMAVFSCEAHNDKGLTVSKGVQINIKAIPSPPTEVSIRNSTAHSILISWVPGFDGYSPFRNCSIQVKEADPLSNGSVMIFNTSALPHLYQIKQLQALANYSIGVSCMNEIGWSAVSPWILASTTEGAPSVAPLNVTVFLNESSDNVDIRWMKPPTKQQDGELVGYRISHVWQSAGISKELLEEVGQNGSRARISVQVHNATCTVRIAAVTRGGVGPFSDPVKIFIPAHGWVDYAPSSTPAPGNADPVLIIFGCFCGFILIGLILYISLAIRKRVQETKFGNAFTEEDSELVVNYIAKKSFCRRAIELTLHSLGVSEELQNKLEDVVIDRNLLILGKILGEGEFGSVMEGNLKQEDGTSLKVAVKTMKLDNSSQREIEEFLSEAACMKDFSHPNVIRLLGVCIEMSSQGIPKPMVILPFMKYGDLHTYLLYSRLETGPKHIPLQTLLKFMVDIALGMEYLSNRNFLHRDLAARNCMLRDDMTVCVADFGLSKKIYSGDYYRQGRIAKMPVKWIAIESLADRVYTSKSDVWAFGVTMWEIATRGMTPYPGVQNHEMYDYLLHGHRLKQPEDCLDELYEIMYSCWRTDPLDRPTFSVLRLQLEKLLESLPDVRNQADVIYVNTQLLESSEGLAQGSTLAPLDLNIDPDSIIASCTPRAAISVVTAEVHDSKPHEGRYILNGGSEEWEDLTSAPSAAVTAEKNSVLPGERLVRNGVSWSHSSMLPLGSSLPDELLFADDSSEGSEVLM

[4] = molecular target: T4, Serine/threonine-protein kinase Nek2 (Homo sapiens) (UniProt P51955); assay: Inhibition of human NEK2 using myelin basic protein as substrate at 1 uM in presence of 32P-ATP by Hotspot assay relative to control; values are per cent of control
T4 sequence (whole entry): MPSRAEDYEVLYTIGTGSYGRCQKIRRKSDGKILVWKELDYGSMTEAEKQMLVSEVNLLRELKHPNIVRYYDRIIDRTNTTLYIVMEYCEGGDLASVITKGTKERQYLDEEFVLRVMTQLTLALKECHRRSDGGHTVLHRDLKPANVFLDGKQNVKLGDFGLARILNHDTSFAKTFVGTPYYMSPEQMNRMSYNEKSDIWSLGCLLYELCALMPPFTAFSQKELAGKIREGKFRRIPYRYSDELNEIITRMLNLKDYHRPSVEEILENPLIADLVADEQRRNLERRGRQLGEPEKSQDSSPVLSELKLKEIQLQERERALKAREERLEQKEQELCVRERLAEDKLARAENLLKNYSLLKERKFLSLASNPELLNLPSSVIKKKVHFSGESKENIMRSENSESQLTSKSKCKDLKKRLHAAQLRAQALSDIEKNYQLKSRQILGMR

[5] = molecular target: Vascular endothelial growth factor receptor 2 (Homo sapiens) (UniProt P35968); assay: Inhibition of human KDR/VEGFR2 using poly[Glu:Tyr] (4:1) as substrate at 1 uM in presence of 32P-ATP by Hotspot assay relative to control; values are per cent of control
Chain of Vascular endothelial growth factor receptor 2 (Homo sapiens) (P35968 whole entry): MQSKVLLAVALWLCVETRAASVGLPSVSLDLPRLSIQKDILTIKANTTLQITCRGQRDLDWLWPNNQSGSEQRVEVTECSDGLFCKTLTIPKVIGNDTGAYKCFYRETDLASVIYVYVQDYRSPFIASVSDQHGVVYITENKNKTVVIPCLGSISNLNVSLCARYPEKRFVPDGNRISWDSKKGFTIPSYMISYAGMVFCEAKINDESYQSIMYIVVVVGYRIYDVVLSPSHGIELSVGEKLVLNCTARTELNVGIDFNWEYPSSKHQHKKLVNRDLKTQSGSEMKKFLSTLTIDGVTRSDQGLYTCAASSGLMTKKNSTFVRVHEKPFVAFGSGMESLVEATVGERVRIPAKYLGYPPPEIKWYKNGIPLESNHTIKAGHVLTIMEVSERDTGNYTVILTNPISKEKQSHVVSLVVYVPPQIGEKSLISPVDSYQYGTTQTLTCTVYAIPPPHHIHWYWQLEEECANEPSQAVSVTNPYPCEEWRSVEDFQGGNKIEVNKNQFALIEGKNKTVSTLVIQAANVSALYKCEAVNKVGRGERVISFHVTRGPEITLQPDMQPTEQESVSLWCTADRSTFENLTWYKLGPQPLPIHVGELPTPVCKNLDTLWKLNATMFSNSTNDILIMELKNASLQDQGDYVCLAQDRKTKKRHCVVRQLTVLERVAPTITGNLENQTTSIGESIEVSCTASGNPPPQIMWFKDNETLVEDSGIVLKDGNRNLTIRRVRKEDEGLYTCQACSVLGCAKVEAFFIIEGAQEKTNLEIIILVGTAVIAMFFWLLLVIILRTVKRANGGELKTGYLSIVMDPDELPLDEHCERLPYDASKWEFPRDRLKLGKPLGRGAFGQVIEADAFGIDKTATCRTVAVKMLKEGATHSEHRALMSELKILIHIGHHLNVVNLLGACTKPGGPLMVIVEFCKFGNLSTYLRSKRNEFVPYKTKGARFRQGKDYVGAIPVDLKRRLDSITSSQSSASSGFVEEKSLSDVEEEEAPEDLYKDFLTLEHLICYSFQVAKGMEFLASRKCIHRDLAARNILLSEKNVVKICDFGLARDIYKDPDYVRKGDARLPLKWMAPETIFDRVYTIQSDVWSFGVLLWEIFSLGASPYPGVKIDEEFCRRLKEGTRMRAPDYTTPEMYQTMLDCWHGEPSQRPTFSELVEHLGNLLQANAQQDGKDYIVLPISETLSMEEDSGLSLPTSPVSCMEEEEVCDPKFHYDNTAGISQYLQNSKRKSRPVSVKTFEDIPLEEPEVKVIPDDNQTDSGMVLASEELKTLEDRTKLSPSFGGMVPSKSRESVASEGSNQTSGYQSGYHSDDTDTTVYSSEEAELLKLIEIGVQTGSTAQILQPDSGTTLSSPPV

Row | SMILES | residual activity [1] [%] | residual activity [2] [%] | residual activity [3] [%] | residual activity [4] [%] | residual activity [5] [%]
1 | Cc1cc(-c2cnc(N)c3c(-c4ccc5scnc5c4)csc23)n(C)n1 | 96.8 | 69.9 | 89.1 | 101 | 59.8
2 | CC(C)S(=O)(=O)c1ccc2nccc(Nc3ccc4scnc4c3)c2c1 | 100 | 90.4 | 93.8 | 100 | 17.4
3 | CNC(=O)c1ccc2c(c1)ncn2-c1ccc(CC(=O)OC(C)(C)C)cc1 | 93.9 | 90.1 | 102 | 102 | 78.7
